Here are results for two molecules from patent US20070014718A1, “Kits for gastric emptying measurement” (Atomic Energy Council - Institute of Nuclear Energy Research, priority 2005, published 2007).

The nature of data set [1]: In-vitro gastric simulation: isotope tracer retention in solid phase of test meal. The class given is in vitro ADME. The following applies: mimic gastric fluid.
Protocol: After chewing the test meal, it is put into a semi-permeable membrane (Spectra/PorMembrane MWCO 3,500, 54 mm×150 mm) incubated and shook with a simulated gastric juice (2 g (gram) of sodium chloride; 3.2 g of pepsin; and, 7 mL of HCl in 1000 mL, pH 1.2) at 37±2° C. having different time intervals. 5 mL aliquot of the liquid phase were removed at regular 60 min intervals, centrifuged and aliquots of the supernatants removed for C-13 glycine quantification with Liquid Chromatography/Mass Spectrometry.
To assess the extent of Tc-99 m phytate retention in the solid phase of the test meal, a simulated gastric digest is made. A muffin is prepared as described above with 1 mCi of a Tc-99 m phytate, which is equivalent to 156.25 μg (microgram) with a specific activity of 10.06 mCi/μmol (μmol, micromolar) mixed with the dry mix 1 and water. […] 5 mL aliquot of the liquid phase were removed at regular 60 min intervals, centrifuged and aliquots of the supernatants removed for liquid scintillation counting Results are then expressed as a percentage, P %, of the initial amount of a radioactivity added. […]
The nature of data set [2]: Shelf-life / chemical stability on storage. The class given is physicochemical. The following applies: stored at a room temperature. From the text: Please refer to FIG. 1 and FIG. 2, which are views showing a kit for a gastric emptying measurement and isotope tracer retention in a solid phase of a test meal, according to the present invention, where isotope tracer retention percentage is obtained in FIG. 2 in vitro gastric digest at pH 2.3 to imitate the gastric condition after administering the test meal. […] A standardized recipe is provided to clinicians in the test meal, which has fixed proportions of carbohydrate, protein, and fat. The raw ingredients in the test meal include a lyophilized egg flour. The characteristic is that the isotope tracer 2 is coagulated with albumin of the egg flour into a solid form at more than 75° C., which means the isotope tracer is well incorporated into a food product. More than 90% of the isotope tracer is retained in a mimic gastric fluid at 35˜39° C. for three hours. […] More than 98% of the Tc-99 m phytate is retained in a mimic gastric fluid at 35˜39° C. for 4 hours. More than 90% of the Tc-99 m DTPA is retained in a mimic gastric fluid at 35˜39° C. for 3 hours The dry mix 1 comprises egg powder (7.4%), all purpose flour (19.6%), glutinous rice powder (3.9%), whole milk powder (35.7%), levulose (fructose) flour (8%), foaming powder (3%), cream powder (22%), cream fragrance powder (0.2%), and salt (0.2%), having a most preferred calorie of about 289.5±12.5 kcal. […]

For data set [3] the following is noted: for % ^13C (dose/hr): breath, patient X, 50 mg. The protocol:
The test meal is administered after an overnight fast along with 100 mL of water within 10 minutes. The first one of the breath samples is collected before the test meal is administered so that a baseline is obtained. And the rest of the breath samples are collected with an 15-minute intervals during 4 hours after the test meal is administered. A measurement can be conveniently done using an isotope ratio mass spectrometer. The results obtained are then expressed in a δ^13C value (^13C/^12C). […] The ^13CO2 excretion parameters are derived from the chi-square distribution in statistics and the equation is expressed as follows. CD=m(1−e^−kt)^β , where CD is the cumulative percentage of the administered dose; t is the time; and, m is the total cumulative percentage of the dose recovered.
A non-linear regression analysis is performed on the originally measured data to obtain values of the m, k, and β for each individual breath test.
The half emptying time is calculated by making CD equal to m/2 in the CD equation: [formula] B. Lag Phase:
The lag phase for the breath test has been defined, which is expressed as follows: tlag=1/k ln β
The % ^13C dose/hr is calculated by the following equation Eq. 1: [formula] • The definition of mmol ^13C excess in breath (a) and mmol ^13C excess administered (b) were shown below: [formula] • 0.0112372 is the ratio of ^13C/^12C of PDB • % ^13Ct and % ^13Ct0: the concentration of ^13C at time t and t0 (i.e. time zero) • δt=δ^13C value at time t (% ^13Ct−% ^13Ct0) is also called “^13C atom percent excess” [formula] • % ^13Csubstr.=% ^13C present in substrate • M=molar mass of substrate • m=amount of substrate • n=number of atoms, ^13C-labelled • (13) The % ^13C cumulative dose is derived numerically from the % ^13C dose/hr data and is calculated from the following Eq. 2, which informs about the global process. [formula] • n=number of samples per hour • n=4, if a breath sample is taken every 15 minutes • ti=time i
• (14) Mathematically analyzing the ^13CO2 excretion curves with a Sigma plot software. […] All of these parameters were determined by a non-linear regression analysis. The half emptying time is calculated by making CD equal to m/2 in the CD equation and being defined by [formula] • . […] The lag phase for the breath test is expressed as tlag=1/k ln β (Eq. 4).

Each structure is given as a SMILES string. Read-outs that look alike come from different tables or passages of the source.

With `O=C([O-])CN(CCN(CC(=O)[O-])CC(=O)[O-])CCN(CC(=O)[O-])CC(=O)[O-].[99Tc+4]` [Tc-99 m DTPA, Tc-99 m DTPA (diethyl-triamine-pentaacetic acid)], in data set [1] (35˜39° C. (37±2° C.), 4 hours), the “isotope tracer retained (incorporated) in the test meal” value is “more than 87%”. The “isotope tracer retained in the test meal” value in data set [1] (35˜39° C., 3 hours) is on record as “More than 90%”.
As for `NC[13C](=O)O` [^13C glycine], in data set [2], the shelf-life entry is reported as “more than 5 year”. Besides, the “% ^13C (dose/hr)” value in data set [3] (sampling time 15 min) stood at 1.104 % ^13C dose/hr; in data set [3] (sampling time 30 min) it was 2.802 % ^13C dose/hr; in data set [3] (sampling time 45 min) it was 3.905 % ^13C dose/hr; in data set [3] (sampling time 60 min) it was 4.754 % ^13C dose/hr; in data set [3] (sampling time 75 min), 5.603 % ^13C dose/hr; in data set [3] (sampling time 90 min), 5.093 % ^13C dose/hr. Also, the “% ^13C (dose/hr)” value in data set [3] (sampling time 105 min) worked out at 5.857 % ^13C dose/hr; in data set [3] (sampling time 120 min), 6.027 % ^13C dose/hr; in data set [3] (sampling time 135 min), 6.706 % ^13C dose/hr; in data set [3] (sampling time 150 min), 5.857 % ^13C dose/hr; in data set [3] (sampling time 165 min), 5.263 % ^13C dose/hr; in data set [3] (sampling time 180 min), 4.414 % ^13C dose/hr. Also, the “% ^13C (dose/hr)” value in data set [3] (sampling time 195 min) was determined as 3.65 % ^13C dose/hr; in data set [3] (sampling time 210 min), 3.65 % ^13C dose/hr; in data set [3] (sampling time 225 min) it was 3.056 % ^13C dose/hr; in data set [3] (sampling time 240 min), 2.547 % ^13C dose/hr. The molecule further came in with a k in data set [3] (human, in vivo) of 0.0101. Also, the “m (total cumulative percentage of the dose recovered)” value in data set [3] (human, in vivo) is reported as 22.844. The β in data set [3] (human, in vivo) came to 2.8256.
